Test results: patent US6770287B1, “Biocidal cellulosic material” (The Regents of the University of California, priority 2000, dated 2004)

Assays:
S. aureus [1] = assay: AATCC Test Method 100 quantitative antibacterial test (bacterial reduction); format: cell-based, Staphylococcu aureus (ATCC 5368); settings: for Bacterial Reduction Rates After fifteen washings S. aur. / Bacterial Reduction Rates After five Washings S. aur. / Bacterial Reduction Rates After ten Washings S. aur. / Bacterial Reduction Rates After twenty washings S. aur.: contact time 60 min
Source text: (§1) AATCC Test Method 100 was adopted in this study. According to this test method, four pieces of staked circular fabric swatches 4.8±0.1 (about one grams) were inoculated with 1.0±0.1 milliliter of inoculum in a 250 milliliter jar. The inoculum was a nutrient broth culture containing over 1.0×10^6 clone forming units (CFU) of organisms. After the swatches were inoculated, they were neutralized by 100 milliliter of a 0.02% sodium thiosulfate solution in the jar. The contact time was the time between inoculation and neutralization. The jar was vigorously shaken and the neutralized solution was diluted in serial. The dilutions, usually 100, 101, and 102, were plated on nutrient agar and incubated for 18-24 hours at 37° C. The number of bacteria recovered from the inoculated finished fabrics was counted and compared with that from untreated fabrics. Six log reduction means the total inactivation of bacteria, and one log reduction means that finished fabrics reduced bacteria counts from 106 CFU to 105 CFU.
(§2) Finished fabrics prepared from solutions containing 1%-6% of monomethylol-5,5-dimethylhydantoin following the protocol set forth in Example 1 with pickup rates below 1% have been tested.
(§3) Fabrics finished in accordance with the protocol set forth in Example II with Anti-2, i.e., 1,3-dimethylol-5,5-dimethylhydantoin, were also tested with AATCC test method 100, which was briefly described in Example IV. In the tests, a diluted CLOROX® solution containing 0.01 % active chlorine was used to chlorinate the finished fabrics.

S. aureus [2] = assay: AATCC Test Method 147 qualitative antibacterial test (inhibition zone); format: cell-based, Staphylococcu aureus (ATCC 5368)
E. coli = assay: AATCC Test Method 100 quantitative antibacterial test (bacterial reduction); format: cell-based, Escherichia coli (ATCC 2666); settings: Cl 0.01%; #400; Anti-1 4%; contact time 60 min
Source text: as §1, §2, §3

[3] = Anti-1 1%, #7402, take up 0.14%
[4] = Anti-1 2%, #7402, take up 0.07%
[5] = Anti-1 4%, #7402, take up 0.45%
[6] = Anti-1 6%, #7402, take up 0.70%

`CC1(C)NC(=O)N(CO)C1=O` [Anti-1, monomethylol-5,5-dimethylhydantoin] was tested, and the “Bacterial reduction rates on contact time 0 min S. aureus” value (S. aureus [1]; Anti-1 1%, #400, take up 0.65%) was “No”, the “Bacterial reduction rates on contact time 30 min S. aureus” value (S. aureus [1]; Anti-1 1%, #400, take up 0.65%) was 1 log and the “Bacterial reduction rates on contact time 60 min S. aureus” value (S. aureus [1]; Anti-1 1%, #400, take up 0.65%) was “No”. The “Bacterial reduction rates on contact time 0 min S. aureus” value (S. aureus [1]; [3]) was “No”, the “Bacterial reduction rates on contact time 30 min S. aureus” value (S. aureus [1]; [3]) was “No” and the “Bacterial reduction rates on contact time 60 min S. aureus” value (S. aureus [1]; [3]) was “No”. The “Bacterial reduction rates on contact time 0 min S. aureus” value (S. aureus [1]; Anti-1 2%, #400, take up 0.03%) was 1 log, the “Bacterial reduction rates on contact time 30 min S. aureus” value (S. aureus [1]; Anti-1 2%, #400, take up 0.03%) was 6 log and the “Bacterial reduction rates on contact time 60 min S. aureus” value (S. aureus [1]; Anti-1 2%, #400, take up 0.03%) was 6 log. For the same molecule, the “Bacterial reduction rates on contact time 0 min S. aureus” value (S. aureus [1]; [4]) was “No”, the “Bacterial reduction rates on contact time 30 min S. aureus” value (S. aureus [1]; [4]) was 1 log and the “Bacterial reduction rates on contact time 60 min S. aureus” value (S. aureus [1]; [4]) was 6 log. The “Bacterial reduction rates on contact time 0 min S. aureus” value (S. aureus [1]; Anti-1 4%, #400, take up 0.47%) was 6 log, the “Bacterial reduction rates on contact time 30 min S. aureus” value (S. aureus [1]; Anti-1 4%, #400, take up 0.47%) was 6 log and the “Bacterial reduction rates on contact time 60 min S. aureus” value (S. aureus [1]; Anti-1 4%, #400, take up 0.47%) was 6 log. The “Bacterial reduction rates on contact time 0 min S. aureus” value (S. aureus [1]; [5]) was 6 log, the “Bacterial reduction rates on contact time 30 min S. aureus” value (S. aureus [1]; [5]) was 6 log and the “Bacterial reduction rates on contact time 60 min S. aureus” value (S. aureus [1]; [5]) was 6 log. For the same molecule, the “Bacterial reduction rates on contact time 0 min S. aureus” value (S. aureus [1]; Anti-1 6%, #400, take up 0.70%) was 6 log, the “Bacterial reduction rates on contact time 30 min S. aureus” value (S. aureus [1]; Anti-1 6%, #400, take up 0.70%) was 6 log and the “Bacterial reduction rates on contact time 60 min S. aureus” value (S. aureus [1]; Anti-1 6%, #400, take up 0.70%) was 6 log. For the same molecule, the “Bacterial reduction rates on contact time 0 min S. aureus” value (S. aureus [1]; [6]) was 6 log, the “Bacterial reduction rates on contact time 30 min S. aureus” value (S. aureus [1]; [6]) was 6 log and the “Bacterial reduction rates on contact time 60 min S. aureus” value (S. aureus [1]; [6]) was 6 log. For the same molecule, the “Bacterial Reduction Rates After fifteen washings S. aur.” value (S. aureus [1]; Cl 0.01%, #400, Anti-1 4%) was 6 log, the “Bacterial Reduction Rates After five Washings S. aur.” value (S. aureus [1]; Cl 0.01%, #400, Anti-1 4%) was 6 log and the “Bacterial Reduction Rates After ten Washings S. aur.” value (S. aureus [1]; Cl 0.01%, #400, Anti-1 4%) was 6 log. The “Bacterial Reduction Rates After twenty washings S. aur.” value (S. aureus [1]; Cl 0.01%, #400, Anti-1 4%) was 6 log, the “Bacterial Reduction Rates After fifteen washings S. aur.” value (S. aureus [1]; Cl 0.01%, #7409, Anti-1 4%) was 6 log and the “Bacterial Reduction Rates After five Washings S. aur.” value (S. aureus [1]; Cl 0.01%, #7409, Anti-1 4%) was 6 log. For the same molecule, the “Bacterial Reduction Rates After ten Washings S. aur.” value (S. aureus [1]; Cl 0.01%, #7409, Anti-1 4%) was 6 log, the “Bacterial Reduction Rates After twenty washings S. aur.” value (S. aureus [1]; Cl 0.01%, #7409, Anti-1 4%) was 6 log and the “Bacterial Reduction Rates After fifteen washings S. aur.” value (S. aureus [1]; Cl 0.1%, #400, Anti-1 4%) was 6 log. For the same molecule, the “Bacterial Reduction Rates After five Washings S. aur.” value (S. aureus [1]; Cl 0.1%, #400, Anti-1 4%) was 6 log, the “Bacterial Reduction Rates After ten Washings S. aur.” value (S. aureus [1]; Cl 0.1%, #400, Anti-1 4%) was 6 log and the “Bacterial Reduction Rates After twenty washings S. aur.” value (S. aureus [1]; Cl 0.1%, #400, Anti-1 4%) was 0 log. The “Bacterial Reduction Rates After fifteen washings S. aur.” value (S. aureus [1]; Cl 0.1%, #7409, Anti-1 4%) was 6 log, the “Bacterial Reduction Rates After five Washings S. aur.” value (S. aureus [1]; Cl 0.1%, #7409, Anti-1 4%) was 6 log and the “Bacterial Reduction Rates After ten Washings S. aur.” value (S. aureus [1]; Cl 0.1%, #7409, Anti-1 4%) was 6 log. The “Bacterial Reduction Rates After twenty washings S. aur.” value (S. aureus [1]; Cl 0.1%, #7409, Anti-1 4%) was 6 log, the “Bacterial Reduction Rates After fifteen washings S. aur.” value (S. aureus [1]; Cl 0.25%, #400, Anti-1 4%) was 0 log and the “Bacterial Reduction Rates After five Washings S. aur.” value (S. aureus [1]; Cl 0.25%, #400, Anti-1 4%) was 6 log. For the same molecule, the “Bacterial Reduction Rates After ten Washings S. aur.” value (S. aureus [1]; Cl 0.25%, #400, Anti-1 4%) was 0 log, the “Bacterial Reduction Rates After twenty washings S. aur.” value (S. aureus [1]; Cl 0.25%, #400, Anti-1 4%) was 0 log and the “Bacterial Reduction Rates After fifteen washings S. aur.” value (S. aureus [1]; Cl 0.25%, #7409, Anti-1 4%) was 6 log. The “Bacterial Reduction Rates After five Washings S. aur.” value (S. aureus [1]; Cl 0.25%, #7409, Anti-1 4%) was 6 log, the “Bacterial Reduction Rates After ten Washings S. aur.” value (S. aureus [1]; Cl 0.25%, #7409, Anti-1 4%) was 6 log and the “Bacterial Reduction Rates After twenty washings S. aur.” value (S. aureus [1]; Cl 0.25%, #7409, Anti-1 4%) was 1 log. The “Biocidal results against S. aureus after being activated” value (“Biocidal results against S. aureus” below) (S. aureus [2]; Dacron/Cotton 65/35 #7402, add-on 1.19%) was >4.0 mm, the “Biocidal results against S. aureus” value (S. aureus [2]; Rayon, add-on 1.21%) was >1.0 mm and the “Biocidal results against S. aureus” value (S. aureus [2]; Terry cloth 100% Cotton, add-on 1.40%) was “kill all”. For the same molecule, the “Bacterial Reduction Rates After fifteen washings E. coli” value (E. coli) was 6 log, the “Bacterial Reduction Rates After five Washings E. coli” value (E. coli) was 6 log and the “Bacterial Reduction Rates After ten Washings E. coli” value (E. coli) was 6 log.
